{"source": "patent US20260216103A1", "about": "“USE OF LONG-ACTING ß2AR AGONIST IN PREPARATION OF DRUGS FOR TREATING CANCERS” (HONG KONG SXMETEROL PHARMACEUTICAL CO., LIMITED, priority 2023, published 2026)", "key": {"[1]": {"test_system": "MDA-MB-231 breast cancer cells", "assay": "orthotopic tumorigenesis experiment with SX-pretreated breast cancer cells", "format": "in vivo, mice", "details": "cells treated with 10 μM SX for 7 d", "protocol": "(§1) Experimental method and steps: Cancer cells were treated with salmeterol xinafoate (SX) in vitro for 3-7 d, and a subcutaneous or orthotopic tumorigenesis experiment was conducted on mice.\nMDA-MB-231 breast cancer cells were treated with 10 μM salmeterol xinafoate (SX) for 7 d, and cells (1×10^4/mouse) were injected into the orthotopic mammary fat pads on both sides of the body of mice in a control group and an SX treated group (5 mice/group) to conduct a tumorigenesis experiment. 8 orthotopic cancers formed at 10 injection sites in the orthotopic mammary fat pads of 5 mice in the control group, and only 6 orthotopic cancers formed at 10 injection sites in the orthotopic mammary fat pads of 5 mice in the SX treated group.\nExperimental results in FIG. 4 show cancer growth curves and representative cancer photos."}, "[2]": {"test_system": "CT-26 colorectal cancer cells", "assay": "subcutaneous tumorigenesis experiment with SX-pretreated colorectal cancer cells", "format": "in vivo, mice", "details": "cells treated with 10 μM SX for 7 d", "protocol": "as §1\nCT-26 colorectal cancer cells were treated with 10 μM salmeterol xinafoate (SX) for 7 d, and cells (1×10^5/mouse) were subcutaneously injected on both sides of the back of mice in a control group and an SX treated group (5 mice/group) to conduct a tumorigenesis experiment. 10 cancers formed subcutaneously at 10 injection sites of 5 mice in the control group, and 8 cancers formed subcutaneously at 10 injection sites of 5 mice in the SX treated group.\nExperimental results in FIG. 5 show cancer growth curves and representative cancer photos."}, "H460 lung cancer cells": {"test_system": "H460 lung cancer cells", "assay": "subcutaneous tumorigenesis experiment with SX-pretreated lung cancer cells (H460)", "format": "in vivo, mice", "details": "cells treated with 10 μM SX for 7 d", "protocol": "as §1\nIn FIG. 6A, H460 lung cancer cells were treated with 10 μM salmeterol xinafoate (SX) for 7 d, and cells (3×10^5/mouse) were subcutaneously injected on both sides of the back of mice in a control group (7 mice) and an SX treated group (5 mice) to conduct a tumorigenesis experiment.\n(§2) Experimental results in FIG. 6 show cancer growth curves and representative cancer photos."}, "LLC lung cancer cells": {"test_system": "LLC lung cancer cells", "assay": "subcutaneous tumorigenesis experiment with SX-pretreated lung cancer cells (LLC)", "format": "in vivo, mice", "details": "cells treated with 10 μM SX for 7 d", "protocol": "as §1\nIn FIG. 6B, LLC lung cancer cells were treated with 10 μM salmeterol xinafoate (SX) for 7 d, and cells (1×10^5/mouse) were subcutaneously injected on both sides of the back of mice in a control group (8 mice) and an SX treated group (5 mice) to conduct a tumorigenesis experiment.\nas §2"}, "RT4 bladder cancer cells": {"test_system": "RT4 bladder cancer cells", "assay": "subcutaneous tumorigenesis experiment with SX-pretreated bladder cancer cells", "format": "in vivo, mice", "details": "cells treated with 10 μM SX for 3 d, 1×10^6/mouse; FIG. 9; P<0.0001 vs control", "protocol": "as §1\nRT4 bladder cancer cells were treated with 10 μM salmeterol xinafoate (SX) for 3 d, and cells (1×10^6/mouse) were subcutaneously injected on both sides of the back of mice in a control group and an SX treated group (5 mice/group) to conduct a tumorigenesis experiment.\nExperimental results in FIG. 9 show cancer growth curves."}, "[3]": {"test_system": "colorectal cancer cells CT-26, SW620, HCT-15, DLD-1", "assay": "tumor sphere formation assay of colorectal cancer cells", "format": "cell-based", "details": "1 μM, 3 μM, or 10 μM, 7 d; FIG. 12", "source_text": "(§3) As a gold standard for detecting the self-renewal capability of cancer stem cells in vitro, a tumor sphere formation assay may detect individual cancer stem cell that continuously self-renew in a conditioned medium and form tumor spheres consisting of multiple cells. This in vitro experiment is often used to test the responsiveness of clinical patients to anticancer drugs, and guide in vivo medication of the clinical patients."}, "[4]": {"test_system": "lung cancer cells LLC, H1299, H460, H446", "assay": "tumor sphere formation assay of lung cancer cells", "format": "cell-based", "details": "1 μM, 3 μM, or 10 μM, 7 d; FIG. 13", "source_text": "as §3"}, "[5]": {"test_system": "head and neck cancer cells CAL-27", "assay": "tumor sphere formation assay of head and neck cancer cells", "format": "cell-based", "details": "1 μM, 3 μM, or 10 μM, 7 d; FIG. 14", "source_text": "as §3"}, "[6]": {"test_system": "esophageal cancer cells KYSE-150", "assay": "tumor sphere formation assay of esophageal cancer cells", "format": "cell-based", "details": "10 μM, 7 d; FIG. 15; P<0.05", "source_text": "as §3\nAccording to culture conditions in Table 5, esophageal cancer cells KYSE-150 were subjected to a tumor sphere formation assay, and treated with salmeterol xinafoate (SX) at a concentration of 10 μM."}, "bladder cancer cells RT4": {"test_system": "bladder cancer cells RT4", "assay": "tumor sphere formation assay of bladder cancer cells", "format": "cell-based", "details": "1 μM, 3 μM, or 10 μM, 7 d; FIG. 16", "source_text": "as §3"}, "[7]": {"test_system": "melanoma cells B16F10, A375, A2058", "assay": "tumor sphere formation assay of melanoma cells", "format": "cell-based", "details": "1 μM, 3 μM, or 10 μM, 7 d; FIG. 17", "source_text": "as §3"}, "[8]": {"test_system": "liver cancer cells Hep G2", "assay": "tumor sphere formation assay of liver cancer cells", "format": "cell-based", "details": "1 μM, 3 μM, or 10 μM, 7 d; FIG. 20", "source_text": "as §3"}, "[9]": {"test_system": "ovarian cancer cells SKOV3", "assay": "tumor sphere formation assay of ovarian cancer cells", "format": "cell-based", "details": "1 μM, 3 μM, or 10 μM, 7 d; FIG. 21", "source_text": "as §3"}, "[10]": {"test_system": "kidney cancer cells G-401, 786-O", "assay": "tumor sphere formation assay of kidney cancer cells", "format": "cell-based", "details": "1 μM, 3 μM, or 10 μM, 7 d; FIG. 22", "source_text": "as §3"}, "osteosarcoma cells U2OS": {"test_system": "osteosarcoma cells U2OS", "assay": "tumor sphere formation assay of osteosarcoma cells", "format": "cell-based", "details": "1 μM, 3 μM, or 10 μM, 7 d; FIG. 26; P<0.01", "source_text": "as §3"}, "[11]": {"test_system": "cervical cancer cells Hela", "assay": "tumor sphere formation assay of cervical cancer cells", "format": "cell-based", "details": "1 μM, 3 μM, or 10 μM, 7 d; FIG. 27", "source_text": "as §3"}, "[12]": {"test_system": "cancer stem cells of 17 cancers", "assay": "tumor sphere formation assays of cancer cells, summary over 17 cancers", "format": "cell-based", "details": "summary of Examples 1-9; agonist used alone", "source_text": "as §3\nCancer stem cells have self-renewal capability, which determines the initiation and progression of cancers. As a gold standard for detecting the self-renewal capability of cancer stem cells in vitro, a tumor sphere formation assay may detect individual cancer stem cells that continuously self-renew in a conditioned medium and form tumor spheres consisting of multiple cells."}}, "data": [{"smiles": "OCc1cc(C(O)CNCCCCCCOCCCCc2ccccc2)ccc1O", "note": "(stereo not drawn) [salmeterol xinafoate]", "values": [{"measurement": "orthotopic cancers formed at injection sites", "setting": "[1]; 1×10^4/mouse into orthotopic mammary fat pads, 10 injection sites of 5 mice, control group 8", "result": 6}, {"measurement": "cancer growth curves (initiation and progression)", "setting": "[1]; FIG. 4, P<0.0001 vs control", "result": "inhibits the initiation and progression of orthotopic breast cancer"}, {"measurement": "cancers formed subcutaneously at injection sites", "setting": "[2]; 1×10^5/mouse, 10 injection sites of 5 mice, control group 10", "result": 8}, {"measurement": "cancer growth curves (initiation and progression)", "setting": "[2]; FIG. 5, P<0.0001 vs control", "result": "inhibits the initiation and progression of subcutaneous colorectal cancer"}, {"measurement": "cancers formed subcutaneously at injection sites", "setting": "H460 lung cancer cells; 3×10^5/mouse, 10 injection sites of 5 mice, control group 11 at 14 sites", "result": "no cancers formed"}, {"measurement": "cancer growth curves (initiation and progression)", "setting": "H460 lung cancer cells; FIG. 6A, P<0.0001 vs control", "result": "inhibits the initiation and progression of subcutaneous lung cancer"}, {"measurement": "cancers formed subcutaneously at injection sites", "setting": "LLC lung cancer cells; 1×10^5/mouse, 10 injection sites of 5 mice, control group all 16 sites", "result": "no cancers formed"}, {"measurement": "cancer growth curves (initiation and progression)", "setting": "LLC lung cancer cells; FIG. 6B, P<0.0001 vs control", "result": "inhibits the initiation and progression of subcutaneous lung cancer"}, {"measurement": "cancer growth curves (initiation and progression)", "setting": "RT4 bladder cancer cells", "result": "inhibits the initiation and progression of subcutaneous bladder cancer"}, {"measurement": "number of tumor spheres (self-renewal capability of cancer stem cells)", "setting": "[3]", "result": "inhibited the self-renewal capability of the colorectal cancer stem cells in a concentration dependent manner"}, {"measurement": "number of tumor spheres (self-renewal capability of cancer stem cells)", "setting": "[4]", "result": "inhibited the self-renewal capability of the lung cancer stem cells in a concentration dependent manner"}, {"measurement": "number of tumor spheres (self-renewal capability of cancer stem cells)", "setting": "[5]", "result": "inhibited the self-renewal capability of the head and neck cancer stem cells"}, {"measurement": "number of tumor spheres (self-renewal capability of cancer stem cells)", "setting": "[6]", "result": "inhibited the self-renewal capability of the esophageal cancer stem cells"}, {"measurement": "number of tumor spheres (self-renewal capability of cancer stem cells)", "setting": "bladder cancer cells RT4", "result": "inhibited the self-renewal capability of the bladder cancer stem cells in a concentration dependent manner"}, {"measurement": "number of tumor spheres (self-renewal capability of cancer stem cells)", "setting": "[7]", "result": "inhibited the self-renewal capability of the melanoma stem cells in a concentration dependent manner"}, {"measurement": "number of tumor spheres (self-renewal capability of cancer stem cells)", "setting": "[8]", "result": "inhibited the self-renewal capability of the liver cancer stem cells in a concentration dependent manner"}, {"measurement": "number of tumor spheres (self-renewal capability of cancer stem cells)", "setting": "[9]", "result": "inhibited the self-renewal capability of the ovarian cancer stem cells in a concentration dependent manner"}, {"measurement": "number of tumor spheres (self-renewal capability of cancer stem cells)", "setting": "[10]", "result": "inhibited the self-renewal capability of the kidney cancer stem cells in a concentration dependent manner"}, {"measurement": "number of tumor spheres (self-renewal capability of cancer stem cells)", "setting": "osteosarcoma cells U2OS", "result": "inhibited the self-renewal capability of the osteosarcoma cancer stem cells"}, {"measurement": "number of tumor spheres (self-renewal capability of cancer stem cells)", "setting": "[11]", "result": "inhibited the self-renewal capability of the cervical cancer stem cells in a concentration dependent manner"}, {"measurement": "self-renewal capability of cancer stem cells", "setting": "[12]", "result": "can significantly inhibit the self-renewal capability of cancer stem cells of 17 cancers"}]}]}
